In US20230234936A1, “COMPOUND FOR TARGETING AND DEGRADING PROTEIN, AND PREPARATION METHOD THEREFOR AND USE THEREOF” (SHANGHAI LEADINGTAC PHARMACEUTICAL CO., LTD., priority 2020, published 2023):

How the values were obtained:
Format in all cases: cell-based
IKZF1 in L363 cells = target: T1, IKZF1 in L363 cells (Homo sapiens, UniProt Q13422+Q96SW2); assay: Degradation of IKZF1 in L363 cells (Western blot); conditions: 1000 nM, 16 hours
T1 construct: endogenous in cells; host or cells: L363
Method: (§1) The 24-well cell culture plate was inoculated with 0.95 mL L363 cells (Nanjing Co-bioer) per well with a cell density of 6×10^5 cells/well. The cell plate was placed in a 5% carbon dioxide incubator and cultured at 37° C. for 8 hours, then 50 μL of compound solution was added. The final concentration of the compound was 1000 nM. After continuing to culture for 16 hours, the cells were collected into a 1.5 mL centrifuge tube and centrifuged at 3000 rpm and 4° C. for 5 minutes. Cell precipitation was cleaned twice with 1×DPBS, resuspended cells were lysed with 100 μL lysate (cell lysate was Western and IP cell lysate (Beyotime), supplemented with 1 mM mixture of phenylmethylsulfonyl fluoride and protease inhibitor (Beyotime)), left on ice for 30 minutes, then centrifuged at 14000 g at 4° C. for 10 minutes, and the supernatant was taken to detect IKZF1 and IKZF3 protein level by Western blot.
(§2) The total protein concentration in the supernatant of cell lysis was determined by BCA protein quantitative kit (Tiangen). According to the concentration of total protein detected by BCA, the supernatant was adjusted to 0.2 μg/μL with PBS and 5× SDS-PAGE protein loading buffer (Beyotime), bathed in water at 100° C. for 10 minutes, then placed in ice bath for 5 minutes, centrifuged at 14000 g and 4° C. for 5 minutes, and then collected as WB loading sample. Prefabricated glue (KeyGEN) was used for protein electrophoresis with a loading amount of 10 μL (total protein 2 μg). After Tris-MOPS-SDS electrophoresis solution (Adamas), 120V constant pressure electrophoresis was performed. After electrophoresis, the protein on the adhesive strip was transferred to PVDF membrane with a constant current of […] for 50 minutes. After the membrane was transferred, the membrane was incubated in 5% bovine serum albumin solution for 2 hours at room temperature. After blocking, PVDF membranes were incubated with IKZF1 primary antibody (CST) and IKZF3 primary antibody (Abcam) overnight at 4°, the membranes were washed with TBST buffer (2.4 g Tris, 8.8 g NaCl, 1.5 mL Tween 20, pH adjusted to 7.4, constant volume to IL) for 30 minutes, incubated with secondary antibody (Abcam) for 2 hours at room temperature, finally incubated with Clarity Western ECL Substrate(BIO-RAD) for 5 minutes for luminescence development, chemiluminescence imaging system (Clinx, chemiScope 6200 Touch) for development and protein mapping photography. The protein map was analyzed by Clinx chemiluminescence analysis software for grayscale values. Using the formula: grayscale correction value=(target protein grayscale value/corresponding internal reference grayscale value)×10^3, the grayscale correction value of each sample was calculated. The degradation rate was calculated by comparing with the grayscale correction value of the control group.

IKZF3 in L363 cells = target: T2, IKZF3 in L363 cells (Homo sapiens, UniProt Q96SW2+Q9UKT9); assay: Degradation of IKZF3 in L363 cells (Western blot); conditions: 1000 nM, 16 hours
T2 construct: endogenous in cells; host or cells: L363
Method: as §1, §2

[1] = test system: Interleukin-6 (IL-6) in LPS-induced human PBMC; assay: Cytokine secretion of LPS-induced human PBMC, IL-6 AlphaLISA detection; conditions: inhibition of IL-6, compound 1 hour or 20 hours, then LPS 100 ng/mL 5 hours
Method: Frozen human PBMC (Milestone, PB010C) was resuspended to RPMI 1640 medium (Gibco, A1049101) after resuscitation, supplemented with 10% fetal bovine serum (Gibco, 10099141), 100 U/mL penicillin and 100 μg/mL streptomycin (Gibco, 15140122). On the same day, 150 μL of PBMC was spread in each well of a 96-well transparent cell plate (Labserv, 310109008), so that the cell density was 2×10^5 cells/well. Then 50 μL diluted compound solution was added to the corresponding cell-covered wells to make the final concentration of the compound in the range of 0.026-10000 nM. The final concentration of DMSO was 0.25%. After the drug-treated cell plate was cultured at 37° C. for 1 hour or 20 hours in a 5% CO2 incubator, 10 μL LPS (0111:B4) (Sigma, L4391) was added with a final concentration of 100 ng/mL. The cell plate was again placed in a 5% CO2 incubator at 37° C. for 5 hours, centrifuged at 2000 rpm for 10 minutes, and 100 μL cell supernatant was taken from each well and transferred to a new 96-well transparent cell plate for cytokine concentration test, which was frozen at −80° C. to be tested.
The concentration of IL-6 in the supernatant of LPS-induced human PBMC cells was determined using interleukin-6 (IL-6) AlphaLISA detection kit (PerkinElmer, AL223 C).
According to the product instructions, IL-6 standard solutions with different concentrations were prepared in the concentration range of […]. 2 μL of IL-6 standard solution at various concentrations and the cell supernatant sample to be tested were taken, respectively added to white 384 well plates (PerkinElmer, 6007299), then a mixed solution of 8 μL of 5× anti-IL-6 receptor beads (final concentration: 10 μg/mL) and biotin-labeled anti-IL-6 antibody (final concentration 1 nM) was added to each well, and incubated at 23° C. for 60 minutes. Finally, 10 μL of 2× streptavidin-labeled donor beads (final concentration: 40 μg/mL) were added to each well and incubated at 23° C. for 30 minutes in the absent of light. After the incubation, the AlphaLISA signal value was determined in the AlphaScreen standard setting mode on the microplate reader EnVision(PerkinElmer, 2105). The standard curve was drawn by the AlphaLISA signal value of each concentration IL-6 standard solution, and then based on the corresponding concentration on the standard curve for the AlphaLISA signal value of the sample to be tested, the IL-6 concentration of each cell lysis supernatant was determined. Compared with the IL-6 concentration of the control group, the inhibition rate of the compound at each concentration was calculated, and then IC50 value of the compound was calculated by fitting the nonlinear curve with the logarithmic concentration-inhibition rate by GraphPad Prism 7.

T1 sequence (Q13422 whole entry): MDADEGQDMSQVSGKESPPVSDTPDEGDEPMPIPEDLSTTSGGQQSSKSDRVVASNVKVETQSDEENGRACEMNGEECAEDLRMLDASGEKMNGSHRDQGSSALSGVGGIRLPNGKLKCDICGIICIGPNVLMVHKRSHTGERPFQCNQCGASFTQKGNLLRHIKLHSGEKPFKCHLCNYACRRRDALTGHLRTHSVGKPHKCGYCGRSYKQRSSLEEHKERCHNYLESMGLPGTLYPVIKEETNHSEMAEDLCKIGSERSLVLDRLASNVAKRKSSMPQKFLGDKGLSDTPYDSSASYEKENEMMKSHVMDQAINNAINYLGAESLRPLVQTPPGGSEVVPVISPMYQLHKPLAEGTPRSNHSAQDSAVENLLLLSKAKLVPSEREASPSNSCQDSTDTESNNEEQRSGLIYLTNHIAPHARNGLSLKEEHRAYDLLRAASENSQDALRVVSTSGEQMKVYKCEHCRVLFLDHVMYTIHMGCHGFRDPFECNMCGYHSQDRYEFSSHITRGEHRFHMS
T1 sequence (Q96SW2 whole entry): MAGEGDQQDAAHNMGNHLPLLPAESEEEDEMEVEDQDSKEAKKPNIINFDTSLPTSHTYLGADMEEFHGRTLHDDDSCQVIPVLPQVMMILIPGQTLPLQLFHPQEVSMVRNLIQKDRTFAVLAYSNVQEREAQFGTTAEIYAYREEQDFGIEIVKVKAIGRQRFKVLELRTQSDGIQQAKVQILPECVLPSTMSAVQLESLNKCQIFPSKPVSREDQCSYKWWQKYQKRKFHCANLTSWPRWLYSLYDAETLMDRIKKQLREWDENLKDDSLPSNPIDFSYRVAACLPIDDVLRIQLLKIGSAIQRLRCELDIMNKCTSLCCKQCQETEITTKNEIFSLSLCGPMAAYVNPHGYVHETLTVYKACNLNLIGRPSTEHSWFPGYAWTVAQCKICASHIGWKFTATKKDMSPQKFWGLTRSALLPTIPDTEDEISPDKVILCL
T1 sequence (Q16531 whole entry partner): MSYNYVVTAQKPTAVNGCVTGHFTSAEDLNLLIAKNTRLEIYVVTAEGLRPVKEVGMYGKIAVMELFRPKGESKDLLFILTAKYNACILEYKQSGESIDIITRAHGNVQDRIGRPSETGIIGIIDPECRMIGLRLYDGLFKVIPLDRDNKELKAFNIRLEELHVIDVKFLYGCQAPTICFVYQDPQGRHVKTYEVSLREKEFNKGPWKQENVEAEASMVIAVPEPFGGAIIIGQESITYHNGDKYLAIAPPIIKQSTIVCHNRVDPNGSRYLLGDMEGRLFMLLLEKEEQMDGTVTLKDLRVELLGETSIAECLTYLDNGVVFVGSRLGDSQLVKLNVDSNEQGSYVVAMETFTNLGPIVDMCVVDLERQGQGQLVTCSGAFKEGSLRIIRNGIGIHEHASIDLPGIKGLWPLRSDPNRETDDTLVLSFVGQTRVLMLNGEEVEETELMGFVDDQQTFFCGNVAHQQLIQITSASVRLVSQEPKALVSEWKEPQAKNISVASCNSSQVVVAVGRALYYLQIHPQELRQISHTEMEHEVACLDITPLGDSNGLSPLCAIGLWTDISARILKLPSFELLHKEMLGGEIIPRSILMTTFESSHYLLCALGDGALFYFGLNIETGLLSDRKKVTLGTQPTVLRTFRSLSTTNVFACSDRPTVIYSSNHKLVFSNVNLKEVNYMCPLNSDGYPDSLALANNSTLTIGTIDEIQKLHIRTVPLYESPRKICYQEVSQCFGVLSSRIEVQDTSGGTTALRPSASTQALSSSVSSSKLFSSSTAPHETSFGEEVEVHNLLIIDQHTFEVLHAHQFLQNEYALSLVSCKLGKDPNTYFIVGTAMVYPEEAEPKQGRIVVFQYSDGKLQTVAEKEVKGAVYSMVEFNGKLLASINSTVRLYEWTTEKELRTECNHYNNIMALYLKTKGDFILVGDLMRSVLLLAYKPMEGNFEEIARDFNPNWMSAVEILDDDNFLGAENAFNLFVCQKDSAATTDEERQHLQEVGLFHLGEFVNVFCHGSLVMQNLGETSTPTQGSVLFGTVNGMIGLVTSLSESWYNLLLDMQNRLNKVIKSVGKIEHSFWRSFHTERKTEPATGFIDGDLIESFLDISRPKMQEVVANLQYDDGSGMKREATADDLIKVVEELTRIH
T2 sequence (Q9UKT9 whole entry): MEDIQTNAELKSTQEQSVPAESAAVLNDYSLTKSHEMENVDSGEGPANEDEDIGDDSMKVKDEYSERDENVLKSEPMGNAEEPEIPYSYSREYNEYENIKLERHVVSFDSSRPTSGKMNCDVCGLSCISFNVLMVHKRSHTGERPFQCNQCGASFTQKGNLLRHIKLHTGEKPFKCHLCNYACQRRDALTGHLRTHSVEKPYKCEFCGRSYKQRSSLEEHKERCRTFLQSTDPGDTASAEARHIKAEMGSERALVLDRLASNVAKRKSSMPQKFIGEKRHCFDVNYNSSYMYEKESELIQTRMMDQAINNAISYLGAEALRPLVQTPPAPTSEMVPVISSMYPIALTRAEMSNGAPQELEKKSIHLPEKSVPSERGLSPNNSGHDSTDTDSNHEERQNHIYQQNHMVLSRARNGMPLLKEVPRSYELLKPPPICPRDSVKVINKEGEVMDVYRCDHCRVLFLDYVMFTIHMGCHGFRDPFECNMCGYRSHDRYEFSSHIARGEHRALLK
T2 sequence (Q96SW2 whole entry): as the sequence (Q96SW2 whole entry) above
T2 sequence (Q16531 whole entry partner): as the sequence (Q16531 whole entry partner) above

| IKZF1 degradation rate (IKZF1 in L363 cells) | IKZF3 degradation rate (IKZF3 in L363 cells) | Structure (SMILES) | IC50 [1] |
| --- | --- | --- | --- |
| 47.5 ± 9.7% | 71.2 ± 5.7% | COc1cc2nn(C3CCN(CC4CCN(CCOc5ccc6c(c5)C(=O)N(C5CCC(=O)NC5=O)C6=O)CC4)CC3)cc2cc1NC(=O)c1cccc(C(F)(F)F)n1 (stereo not drawn) [Control group 2, N-(2-(1-((1-(2-((2-(2,6-dioxopiperidin-3-yl)-1,3-dioxoisoindol-5-yl)oxy)ethyl)piperidin-4-yl)methyl)piperidin-4-yl)-6-methoxy-2H-indazol-5-yl)-6-(trifluoromethyl) pyridinecarboxamide, reference compound] | 2050 nM |
| 97.2 ± 2.6% | 92.8 ± 5.0% | CN(CC1CCN(c2cccc3c2C(=O)N(C2CCC(=O)NC2=O)C3=O)CC1)C[C@H]1CC[C@H](n2cc3cc(NC(=O)c4cccc(C(F)(F)F)n4)c(C(C)(C)O)cc3n2)CC1 (stereo partly drawn) [Control group 3, N-(2-((1r,4r)-4-((((1-(2-(2,6-dioxopiperidin-3-yl)-1,3-dioxoisoindolin-4-yl)piperidin-4-yl)methyl) (methyl)amino)methyl)cyclohexyl)-6-(2-hydroxyprop-2-yl)-2H-indazol-5-yl)-6-(trifluoromethyl) pyridinecarboxamide, reference compound] | 47.5 nM |
| 8.4 ± 13.9% | 17.8 ± 3.6% | CC(C)(O)c1cc2nn(C3CCN(CC4CCC5(CC4)CCN(C(=O)c4ccc(Cl)c(N6CCC(=O)NC6=O)c4)CC5)CC3)cc2cc1NC(=O)c1cccc(C(F)(F)F)n1 [Example 31, N-(2-(1-((3-(4-chloro-3-(2,4-dioxotetrahydro-pyrimidin-1 (2H)-yl)benzoyl)-3-azaspiro [5.5]undec-9-yl)methyl)piperdin-4-yl)-6-(2-hydroxyprop-2-yl)-2H-indazol-5-yl)-6-(trifluoro-methyl) pyridinecarbox-amide] | 1.8 nM |
